From article PMC6274076, “Discovery of Uracil Derivatives as Potent Inhibitors of Fatty Acid Amide Hydrolase” (Molecules, 2016)
Values joined by “and” are separate entries in the source; they are usually repeats but may differ in a detail not shown here. Equal values may be shown once. Read-outs that look alike come from different tables or passages of the source.

Assays:
[1] = target: T1, recombinant rat FAAH (rFAAH) (Rattus norvegicus, UniProt P97612); assay: FAAH enzyme activity assay (AEA hydrolysis, HPLC-MS/MS); assay type: biochemical; conditions: for FAAH inhibitory activity (in words): rFAAH enzyme assay; for fold decrease in FAAH inhibitory potency vs. compound 1: compared with parent compound 1
T1 construct: expressed in transfected cells; host or cells: HEK293-rFAAH cells (homogenate supernatant)
T1 sequence (P97612 1-579): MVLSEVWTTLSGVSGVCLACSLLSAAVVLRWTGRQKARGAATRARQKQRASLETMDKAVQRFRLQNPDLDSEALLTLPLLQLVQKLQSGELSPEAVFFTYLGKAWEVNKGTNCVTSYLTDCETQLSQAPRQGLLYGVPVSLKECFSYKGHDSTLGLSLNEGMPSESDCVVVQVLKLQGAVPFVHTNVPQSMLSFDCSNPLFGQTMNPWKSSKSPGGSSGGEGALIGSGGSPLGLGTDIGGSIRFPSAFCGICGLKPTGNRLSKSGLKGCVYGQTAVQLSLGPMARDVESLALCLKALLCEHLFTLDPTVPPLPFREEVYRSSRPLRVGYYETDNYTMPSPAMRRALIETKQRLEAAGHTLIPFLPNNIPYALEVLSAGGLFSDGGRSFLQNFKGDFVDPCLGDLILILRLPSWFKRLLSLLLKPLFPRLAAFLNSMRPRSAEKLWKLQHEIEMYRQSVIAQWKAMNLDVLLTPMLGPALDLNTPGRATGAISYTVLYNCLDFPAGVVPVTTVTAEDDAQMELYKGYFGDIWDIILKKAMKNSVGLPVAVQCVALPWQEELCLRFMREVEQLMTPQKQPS
Experimental: The substituted 2,4-dioxopyrimidine-1-carboxamides and the related analogues described above were subjected to in vitro biological evaluation toward recombinant rat FAAH derived from HEK293-rFAAH cell. Enzyme assays were performed at 37 °C by incubating 30 µg of rFAAH protein with 25 μM anandamide as substrate in Tris-HCl buffer containing fatty acid-free BSA (0.05%). When the reactions were terminated, 1 nmol heptadecanoic acid (17:0 FFA) was added as an internal standard. […] The hydrolyzate of AEA (arachidonic acid), together with heptadecanoic acid was detected in HPLC/MS/MS to estimate the potency of rFAAH inhibition according to the methods previously described.
The inhibition effects of uracil derivatives toward recombinant rat FAAH (rFAAH) were assessed by enzyme activity assay. HEK293-rFAAH cells were harvested, washed with PBS, sonicated in 20 mM Tris-HCl (pH 7.5) containing 0.32 M sucrose, and centrifuged at 800× g for 15 min at 4 °C. The supernatants were collected and protein concentrations were measured by BCA protein assay kit (Pierce, Shanghai, China). FAAH proteins (30 μg) were incubated at 37 °C for 30 min in Tris buffer (50 mM, pH = 8.0) containing fatty acid-free BSA (0.05%) and 25 μM AEA (Sigma-Aldrich, Shanghai, China) as substrate. The above reactions were stopped by adding 200 μL methanol containing 1 nmol heptadecanoic acid (17:0 FFA) as internal standard. The reaction mixture was extracted with 4 mL chloroform and then vortex for 1 min. Lipid layer was separated by centrifugation at 3000× g for 10 min and then transferred to a clean 10 mL V-bottom glass tube and dried under nitrogen (N2) flow. After redissolved with 1 mL CHCl3, the lipid solution went through the solid-phase extraction, and was eluted by methanol/chloroform (v/v, 1/9). The elution containing FAEs and FFAs was dried under N2, and reconstituted in 100 μL methanol for HPLC-MS/MS analysis.
Samples were detected by an ABI 3200 Q-Trap mass spectrometer (Applied Biosystems/MDS Sciex) equipped with 1100-LC system (Agilent, Shanghai, China). The mobile phase for FFAs detection was consisted of MeOH and ultra-pure H2O (pH = 7.4, each containing 0.25% acetic acid and 5 mmol/L ammonium acetate), and the elution condition was 95% methanol keeping for 3 min at a flow rate of 1.0 mL·min^−^1. The column temperature was kept at 40 °C. Ion detection was monitored by ESI negative mode. The molecular ions were monitored at m/z 303 for AA, and m/z 269 for C17:0 FFA. Inhibition curves and IC50 values of each compounds was calculated by GraphPad Prism (version 5.01, GraphPad Software Inc., San Diego, CA, USA).

[2] = rFAAH protein 30 μg from HEK293-rFAAH cells, 25 μM anandamide, 37 °C, 30 min, Tris buffer pH 8.0, read-out: IC50 of FAAH Inhibition
[3] = as stated in abstract, read-out: IC50 (FAAH inhibition)

Molecule `CCCCCCNC(=O)n1ccc(=O)[nH]c1=O` [Compound 1, N-Hexyl-2,4-dioxo-pyrimidine-1-carboxamide] has an IC50 [1, 2] of 110 ± 30 nM.

In the case of `CCCCCCNC(=O)N1CCC(=O)NC1=O` [Compound 2, N-Hexyl-2,4-dioxotetrahydropyrimidine-1-carboxamide], the “FAAH inhibitory activity (in words)” value [1] is reported as “no inhibitory activity” and the IC50 [1, 2] is reported as greater than 10000 nM.

With `CCCCCCNC(=O)N1CCCNC1=O` [Compound 3, N-Hexyl-2-oxotetrahydropyrimidine-1-carboxamide] the “FAAH inhibitory activity (in words)” value [1] was “loss of FAAH inhibitory activities” and the IC50 [1, 2] was greater than 10000 nM.

For `CCCCCCNC(=O)n1ccc(=O)n(C)c1=O` [Compound 4, N-Hexyl-3-methyl-2,4-dioxopyrimidine-1-carboxamide], the “fold decrease in FAAH inhibitory potency vs. compound 1” value [1] was 8- to 10 fold and the IC50 [1, 2] was 860 ± 80 nM.

In the case of `CCCCCCNC(=O)n1cc(C)c(=O)[nH]c1=O` [Compound 5, N-Hexyl-5-methyl-2,4-dioxopyrimidine-1-carboxamide], the “fold decrease in FAAH inhibitory potency vs. compound 1” value [1] is reported as 2- to 3 fold and the IC50 [1, 2] is reported as 250 ± 30 nM.

For `CCCCCCNC(=O)n1c(C)cc(=O)[nH]c1=O` [Compound 6, N-Hexyl-6-methyl-2,4-dioxopyrimidine-1-carboxamide], the “fold decrease in FAAH inhibitory potency vs. compound 1” value [1] was 8- to 10 fold and the IC50 [1, 2] was 1270 ± 210 nM.

In the case of `O=C(NCCc1ccccc1)n1ccc(=O)[nH]c1=O` [Compound 7, N-(2-Phenylethyl)-2,4-dioxopyrimidine-1-carboxamide], the “fold decrease in FAAH inhibitory potency vs. compound 1” value [1] is reported as 3 fold and the IC50 [1, 2] is reported as 300 ± 70 nM.

Work on `Cc1cn(C(=O)NCCc2ccccc2)c(=O)[nH]c1=O` [Compound 8, 5-Methyl-N-(2-phenylethyl)-2,4-dioxopyrimidine-1-carboxamide] yielded an IC50 [1, 2] of 1070 ± 140 nM.

With `COc1cn(C(=O)NCCc2ccccc2)c(=O)[nH]c1=O` [Compound 9, 5-Methoxy-N-(2-phenylethyl)-2,4-dioxopyrimidine-1-carboxamide] the IC50 [1, 2] was 530 nM and 531 nM.

With `O=C(NCCc1ccccc1)n1cc(F)c(=O)[nH]c1=O` [Compound 10, 5-Fluoro-N-(2-phenylethyl)-2,4-dioxopyrimidine-1-carboxamide] the IC50 [1, 2] was 98 ± 10 nM.

Molecule `O=C(NCCc1ccccc1)n1cc(C(F)(F)F)c(=O)[nH]c1=O` [Compound 11, N-(2-Phenylethyl)-5-trifluoromethyl-2,4-dioxopyrimidine-1-carboxamide] has an IC50 [1, 3] of 21 nM and an IC50 [1, 2] of 21 ± 4 nM.

Work on `O=C(NCc1ccc2ccccc2c1)n1ccc(=O)[nH]c1=O` [Compound 12] yielded a melting point of 84 to 84.6 °C.

`O=C(NCc1ccc(-c2ccccc2)cc1)n1ccc(=O)[nH]c1=O` [Compound 14, N-[2-(4-Biphenyl)methyl]-2,4-dioxopyrimidine-1-carboxamide] gave an IC50 [1, 3] of 53 nM and an IC50 [1, 2] of 53 ± 6 nM.

For `O=C(NCc1ccc(-c2ccccc2)cc1)n1cc(F)c(=O)[nH]c1=O` [Compound 15, N-[2-(4-biphenyl)methyl]-5-fluoro-2,4-dioxo-pyrimidine-1-carboxamide], the “fold less potent vs. compound 14” value ([1]; compared with compound 14) was 2 fold and the IC50 [1, 2] was 100 ± 10 nM.

With `O=C(Nc1cn(C(=O)NCCc2ccccc2)c(=O)[nH]c1=O)OCc1ccccc1` [Compound 16, Benzyl (2,4-dioxo-1-{[(2-phenylethyl)amino]carbonyl}-1,2,3,4-tetrahydro-5-pyrimidinyl)carbamate (2H)-carboxamide] the “increase of FAAH inhibitory potency vs. compound 17” value ([1]; compared with compound 17) was “about 10 times” and the IC50 [1, 2] was 120 ± 30 nM.

`Nc1cn(C(=O)NCCc2ccccc2)c(=O)[nH]c1=O` [Compound 17, 5-Amino-N-(2-phenylethyl)-2,4-dioxopyrimidine-1-carboxamide] showed an IC50 [1, 2] of 1330 ± 130 nM.

Work on `O=C(NCCc1ccccc1)n1cc(O)c(=O)[nH]c1=O` [Compound 18, 5-hydroxy-N-(2-phenylethyl)-2,4-dioxopyrimidine-1-carboxamide] yielded an IC50 [1, 2] of 540 ± 70 nM.

With `CCCCCCCn1ccc(=O)[nH]c1=O` [Compound 19, 1-Heptyl-2,4-dioxopyrimidine] the “FAAH inhibitory activity (in words)” value [1] was “not inhibited at all” and the IC50 [1, 2] was greater than 100000 nM.

With `CCCCCCCn1cc(F)c(=O)[nH]c1=O` [Compound 20, 5-Fluoro-1-heptyl-2,4-dioxopyrimidine] the “FAAH inhibitory activity (in words)” value [1] was “not inhibited at all” and the IC50 [1, 2] was greater than 100000 nM.

For `CCCCCCNC(=O)Cn1cc(F)c(=O)[nH]c1=O` [Compound 21, 2-[5-Fluoro-2,4-dioxopyrimidinyl]-N-hexylacetamide], the “FAAH inhibitory activity (in words)” value [1] was “total loss of the FAAH inhibitory activity” and the IC50 [1, 2] was greater than 100000 nM.
